Values after ≈ are worked out from the molar mass of the structure shown. Values joined by “and” are separate entries in the source; they are usually repeats but may differ in a detail not shown here. Equal values may be shown once.

Data set [1] has as its target T1, HER-2 (Homo sapiens, UniProt P04626).
T1 construct: Effects of compounds 5e and 5a on VEGFR-2 and HER2 (µM) in MCF-7 cells compared to control; endogenous in cells; host or cells: MCF-7
Kind of data set: In vitro HER-2 inhibition assay. It is filed as biochemical. The conditions noted are these: mean of three replicates ± S.D. The protocol:
(§1) Assessment was performed using a VEGFR-2 (human) SimpleStep ELISA kit (ab213476) and HER-2 (human) SimpleStep ELISA kit (ab100510) (abcam® Cambridge, CB2 0AX, Cambridge, UK) according to manufacturer instructions. In brief, tissue culture supernatant was added to the anti-tag antibody-coated wells, followed by the secondary antibody mix. To remove unbound material, the wells were washed after incubation. […] The final step in the transformation from blue to yellow was the addition of a stop solution, which halted the reaction. The intensity of the signal generated at 450 nm was proportional to the amount of bound analyte.

Data set [2] concerns VEGFR-2. Nature of the data set: VEGFR-2 expression level in MCF-7 cells (ELISA). The conditions noted are these: untreated control 1573.00 ± 36.9. It is filed as cell-based, human. The protocol: (§2) In this study, we further explored the impact of cyanopyridones 5a and 5e on VEGFR-2 and HER-2 expression levels in MCF-7 cells (Figure 5). The results disclosed that both 5a and 5e had interesting profiles for reduction of VEGFR-2/HER-2 expression levels compared to the control cells and the reference drug taxol.
as §1
(In general: ELISA stands for enzyme-linked immunosorbent assay.)

Another data set concerns MCF-7 cell line. Kind of data set: MTT cytotoxicity assay, MCF-7. The conditions noted are these: Homo sapiens, MCF7, 48 h, mean ± S.D. of three experiments, 50% growth inhibition. It is filed as cell-based. The protocol: (§3) The MTT colorimetric assay is a very sensitive method used to measure the potential cytotoxicity (loss of viable cells) of targeted compounds. […] The drug taxol was used as the reference standard. Cell morphological changes were recorded to determine the cytotoxic effect, and the results are found in Table 1, Figure 3.
(§4) In vitro testing was performed on HepG2 and MCF-7 cell lines to determine the antitumor activity of the newly synthesized chemical compounds. Both cell lines originally came from Egypt’s National Cancer Institute (NCI), housed at Cairo University. At 37 °C with 5% […], the cells were grown in RPMI 1640 containing 10% fetal bovine serum, 50 micrograms per milliliter of streptomycin, and 100 international units per milliliter of penicillin. After trypsinization with 0.05% trypsin-EDTA, cell growth and morphology were evaluated, and passages were made when cells reached 80–90% confluence.
(§5) The MTT assay protocol is described in the Supplementary Materials.
(§6) The MTT assay was used to determine the effects of the newly synthesized compounds on cell viability. In a nutshell, 1 × 10^4 cells/well were seeded in a 96-well plate and allowed to grow for 24 hours. After 24 hours, the original medium was discarded, and a new compounds-containing medium was added. After 48 hours, the media was changed out and 100 μL of MTT (10 μL from (MTT) stock solution (5 mg/ml in PBS) in 100 μL media) was added to each well, and the plates were incubated at 37° C for 4 hours. After adding 100 μL of acidified isopropanol to each well, the formed formazan crystals were dissolved, and the absorbance was read at 570 nm using an ELISA microplate reader (Epoc-2C micro-plate reader, Bio Tek, VT, USA). There were three separate runs of every experiment. Half-maximal inhibitory concentrations (IC50) were determined by fitting sigmoidal dose-response curves.
(§7) GraphPad Prism 8.0 (San Diego, CA, USA) analyzed all results. All results (three independent experiments) were shown as means ± standard deviation. The significance of the differences in the outcomes of all groups was examined using ANOVA and Tukey’s

Data set [3] deals with HER-2. Nature of the data set: HER-2 expression level in MCF-7 cells (ELISA). It is filed as cell-based, human. As to conditions: untreated control 559.00 ± 33.9. As for the experimental part: as §2, §1
The next data set relates to HepG2 cell line. Kind of data set: MTT cytotoxicity assay, HepG2. It is filed as cell-based. The conditions noted are these: Homo sapiens, 48 h, mean ± S.D. of three experiments, 50% growth inhibition. The protocol:
as §3, §4, §5, §6, §7

Data set [4] addresses T2, VEGFR-2 (Homo sapiens, UniProt P35968).
T2 construct: Effects of compounds 5e and 5a on VEGFR-2 and HER2 (µM) in MCF-7 cells compared to control; endogenous in cells; host or cells: MCF-7
Nature of the data set: In vitro VEGFR-2 inhibition assay. As to conditions: mean of three replicates ± S.D. It is filed as biochemical. The protocol: as §1

Data set [5] relates to NCI-H460 non-small cell lung cancer. Set-up: method as in PMID 26729087. As to conditions: cited from earlier work.
For another data set, the system named is SF-268 CNS cancer. More on the design: method as in PMID 26729087. As to conditions: cited from earlier work.
Another data set concerns MCF-7 breast cancer. Set-up: method as in PMID 26729087. As to conditions: cited from earlier work.
Data set [6] relates to HER-2. More on the design: method as in doi:10.1039/C5MD00602C. The conditions noted are these: reported by Pfizer; cited from earlier work.

T2 sequence (P35968 20-1356): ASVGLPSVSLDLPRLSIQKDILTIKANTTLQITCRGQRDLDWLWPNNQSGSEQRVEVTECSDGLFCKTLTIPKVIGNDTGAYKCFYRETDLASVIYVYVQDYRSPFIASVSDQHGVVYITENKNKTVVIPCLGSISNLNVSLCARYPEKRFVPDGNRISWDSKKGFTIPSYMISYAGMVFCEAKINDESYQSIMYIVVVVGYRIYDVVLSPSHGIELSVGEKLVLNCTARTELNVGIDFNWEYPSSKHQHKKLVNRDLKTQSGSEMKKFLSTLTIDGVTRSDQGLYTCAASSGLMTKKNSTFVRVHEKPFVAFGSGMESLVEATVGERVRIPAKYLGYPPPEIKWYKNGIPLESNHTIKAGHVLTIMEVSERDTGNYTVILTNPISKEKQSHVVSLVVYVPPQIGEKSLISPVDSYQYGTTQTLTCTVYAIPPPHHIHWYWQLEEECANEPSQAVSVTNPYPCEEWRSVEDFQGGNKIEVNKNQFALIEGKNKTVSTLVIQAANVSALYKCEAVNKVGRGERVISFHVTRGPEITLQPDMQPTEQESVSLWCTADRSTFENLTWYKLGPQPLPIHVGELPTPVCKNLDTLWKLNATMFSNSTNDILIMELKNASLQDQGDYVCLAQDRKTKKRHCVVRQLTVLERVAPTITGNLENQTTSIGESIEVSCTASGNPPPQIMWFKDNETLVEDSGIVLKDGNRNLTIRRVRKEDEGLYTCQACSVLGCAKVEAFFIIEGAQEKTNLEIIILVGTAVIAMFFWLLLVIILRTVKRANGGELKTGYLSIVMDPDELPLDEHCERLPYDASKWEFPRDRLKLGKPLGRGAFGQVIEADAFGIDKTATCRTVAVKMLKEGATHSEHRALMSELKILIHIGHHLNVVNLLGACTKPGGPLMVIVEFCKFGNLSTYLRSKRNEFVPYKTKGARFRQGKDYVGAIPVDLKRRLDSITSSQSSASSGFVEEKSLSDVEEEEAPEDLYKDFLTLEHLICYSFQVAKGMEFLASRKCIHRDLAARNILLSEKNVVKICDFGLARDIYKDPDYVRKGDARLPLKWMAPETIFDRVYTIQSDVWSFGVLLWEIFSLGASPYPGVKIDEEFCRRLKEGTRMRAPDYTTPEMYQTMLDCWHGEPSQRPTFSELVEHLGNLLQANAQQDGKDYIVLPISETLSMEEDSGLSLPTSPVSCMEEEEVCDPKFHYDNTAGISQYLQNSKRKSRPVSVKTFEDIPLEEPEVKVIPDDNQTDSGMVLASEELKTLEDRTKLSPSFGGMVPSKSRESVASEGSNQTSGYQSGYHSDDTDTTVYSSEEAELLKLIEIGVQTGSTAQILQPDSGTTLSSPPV
T1 sequence (P04626 23-1255): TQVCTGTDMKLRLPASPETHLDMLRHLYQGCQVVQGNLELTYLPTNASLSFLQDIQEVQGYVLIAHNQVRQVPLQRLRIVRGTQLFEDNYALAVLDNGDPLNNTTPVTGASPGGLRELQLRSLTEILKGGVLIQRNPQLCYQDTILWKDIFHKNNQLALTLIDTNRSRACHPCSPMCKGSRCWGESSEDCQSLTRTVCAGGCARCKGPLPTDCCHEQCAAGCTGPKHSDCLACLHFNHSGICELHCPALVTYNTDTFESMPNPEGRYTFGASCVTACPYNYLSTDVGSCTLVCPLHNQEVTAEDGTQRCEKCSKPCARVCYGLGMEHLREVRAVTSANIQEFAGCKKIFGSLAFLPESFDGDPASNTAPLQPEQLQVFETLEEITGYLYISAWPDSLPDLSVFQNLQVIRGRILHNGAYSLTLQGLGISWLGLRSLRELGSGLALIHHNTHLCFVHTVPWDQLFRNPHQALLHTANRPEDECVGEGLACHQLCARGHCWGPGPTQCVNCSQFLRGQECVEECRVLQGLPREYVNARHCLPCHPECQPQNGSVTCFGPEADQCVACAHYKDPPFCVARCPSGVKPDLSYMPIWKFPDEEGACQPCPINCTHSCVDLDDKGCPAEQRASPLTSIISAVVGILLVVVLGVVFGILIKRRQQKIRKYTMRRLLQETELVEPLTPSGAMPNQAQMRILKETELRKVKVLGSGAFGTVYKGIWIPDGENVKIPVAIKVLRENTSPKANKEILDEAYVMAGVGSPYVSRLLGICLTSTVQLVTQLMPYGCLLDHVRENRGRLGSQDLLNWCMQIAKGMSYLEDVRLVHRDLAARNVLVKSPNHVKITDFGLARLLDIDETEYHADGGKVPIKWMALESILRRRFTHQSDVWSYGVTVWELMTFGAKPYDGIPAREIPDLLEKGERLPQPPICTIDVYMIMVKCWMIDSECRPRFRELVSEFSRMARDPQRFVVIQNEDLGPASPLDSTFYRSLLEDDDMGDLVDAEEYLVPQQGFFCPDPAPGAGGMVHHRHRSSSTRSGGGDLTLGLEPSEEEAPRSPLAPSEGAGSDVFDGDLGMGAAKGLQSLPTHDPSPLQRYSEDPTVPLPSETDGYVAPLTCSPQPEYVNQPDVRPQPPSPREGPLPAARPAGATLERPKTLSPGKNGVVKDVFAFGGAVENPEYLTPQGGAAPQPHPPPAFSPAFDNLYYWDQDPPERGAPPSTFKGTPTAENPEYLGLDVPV

In turn, `N#Cc1c(-c2ccccc2)c(C#N)c(=O)n(-c2cccc(C(F)(F)F)c2)c1N` [Compound 5a] registered a melting point of 280 to 282 °C. This molecule also had an IC50 at HER-2 [1] of 0.168 ± 0.009 µM. In addition, the “VEGFR-2 (pg/mL) expression level” value in the data set with VEGFR-2 [2] was 884.30 pg/mL and 884.30 ± 29.3 pg/mL. In the data set on MCF-7 cell line, the midpoint of inhibition, the IC50, lay at 1.77 ± 0.1 µM. Besides, the “HER-2 (pg/mL) expression level” value in the data set on HER-2 [3] was 299.50 pg/mL and 299.50 ± 4.7 pg/mL. In the data set with HepG2 cell line, this molecule registered a 50% inhibitory concentration (IC50) of 2.71 ± 0.15 µM. In addition, on VEGFR-2 [4], the 50% inhibitory concentration (IC50) worked out at 0.217 ± 0.02 µM.

For `N#Cc1c(-c2ccc(O)cc2)c(C#N)c(=O)n(-c2cccc(C(F)(F)F)c2)c1N` [Compound 5b], the melting point lay within 330 to 332 °C. In the data set with MCF-7 cell line, this molecule registered an IC50 of 24.7 ± 1.33 µM. Also, the IC50 in the data set with HepG2 cell line stood at 11.4 ± 0.61 µM.

`N#Cc1c(-c2ccc([N+](=O)[O-])cc2)c(C#N)c(=O)n(-c2cccc(C(F)(F)F)c2)c1N` [Compound 5c] gave a melting point of 229 to 230 °C. Also, inhibition in the data set with MCF-7 cell line was half-maximal at 20.2 ± 1.09 µM (IC50). In the data set on HepG2 cell line, this molecule gave an IC50 of 4.01 ± 0.22 µM.

Molecule `N#Cc1c(-c2ccc(Cl)cc2)c(C#N)c(=O)n(-c2cccc(C(F)(F)F)c2)c1N` [Compound 5d] returned a melting point of 324 to 326 °C. The same molecule showed an IC50 with MCF-7 cell line of 13.7 ± 0.74 µM. In the data set on HepG2 cell line, this molecule gave an IC50 of 22.5 ± 1.22 µM.

As to `N#Cc1c(-c2ccc(Cl)cc2Cl)c(C#N)c(=O)n(-c2cccc(C(F)(F)F)c2)c1N` [Compound 5e], the melting point fell in the range of 239 to 241 °C. 0.077 ± 0.003 µM corresponded to half-maximal inhibition against HER-2 [1] (IC50). For the same molecule, the “VEGFR-2 (pg/mL) expression level” value with VEGFR-2 [2] was 510.00 pg/mL and 510.00 ± 20.2 pg/mL. This molecule registered a half-inhibitory concentration (IC50) in the data set on MCF-7 cell line of 1.39 ± 0.08 µM. In the data set with HER-2 [3], the “HER-2 (pg/mL) expression level” value was 148.60 pg/mL and 148.60 ± 5.5 pg/mL. Moreover, in the data set with HepG2 cell line, the 50% inhibitory concentration (IC50) amounted to 10.7 ± 0.58 µM. Besides, inhibition against VEGFR-2 [4] was half-maximal at 0.124 ± 0.011 µM (IC50).

Turning to `COc1cc(-c2c(C#N)c(N)n(-c3cccc(C(F)(F)F)c3)c(=O)c2C#N)cc(OC)c1OC` [Compound 5f], the melting point lay in the range of 195 to 197 °C. Further, 54.2 ± 2.93 µM corresponded to half-maximal inhibition in the data set with MCF-7 cell line (IC50). In the data set with HepG2 cell line, this molecule came in with an IC50 of 40.6 ± 2.19 µM.

For the molecule `N#Cc1c(-c2ccc(O)cc2)c2c(=O)[nH]cnc2n(-c2cccc(C(F)(F)F)c2)c1=O` [Compound 6a], the melting point lay within 300 to 302 °C. Further, in the data set with HepG2 cell line, inhibition was half-maximal at 7.27 ± 0.39 µM (IC50).

The molecule `N#Cc1c(-c2ccc(Cl)cc2)c2c(=O)[nH]cnc2n(-c2cccc(C(F)(F)F)c2)c1=O` [Compound 6b] came in with a melting point of 350 to 352 °C. Further, in the data set on MCF-7 cell line, it took 14 ± 0.76 µM to reach half-maximal inhibition (IC50). Also, the IC50 in the data set with HepG2 cell line is 2.68 ± 0.14 µM.

`Cc1nc2c(c(-c3ccccc3)c(C#N)c(=O)n2-c2cccc(C(F)(F)F)c2)c(=O)[nH]1` [Compound 7a] yielded a melting point of 308 to 310 °C. Besides, the half-inhibitory concentration (IC50) with MCF-7 cell line was 10.7 ± 0.58 µM. The same molecule had an IC50 in the data set with HepG2 cell line of 16.3 ± 0.88 µM.

Consider `Cc1nc2c(c(-c3ccc(Cl)cc3)c(C#N)c(=O)n2-c2cccc(C(F)(F)F)c2)c(=O)[nH]1` [Compound 7b], for which the melting point was 330 to 332 °C. In the data set on MCF-7 cell line, this molecule showed an IC50 of 6.22 ± 0.34 µM. Besides, the concentration for half-maximal inhibition (IC50) with HepG2 cell line was 19.6 ± 1.06 µM.

Turning to `Cc1nc2c(c(-c3ccc(Cl)cc3Cl)c(C#N)c(=O)n2-c2cccc(C(F)(F)F)c2)c(=O)[nH]1` [Compound 7c], the melting point was in the range of 333 to 335 °C. In the data set on MCF-7 cell line, this molecule registered an IC50 of 9.28 ± 0.5 µM. In addition, the half-inhibitory concentration (IC50) in the data set with HepG2 cell line came to 5.04 ± 0.27 µM.

Turning to `CC(=O)Oc1ccc(-c2c(C#N)c(=O)n(-c3cccc(C(F)(F)F)c3)c3nc(C)[nH]c(=O)c23)cc1` [Compound 7d], the melting point was 320 to 322 °C. The IC50 in the data set with MCF-7 cell line was 43.4 ± 2.35 µM. Also, the half-maximal inhibitory concentration (IC50) in the data set with HepG2 cell line came to 52.5 ± 2.84 µM.

Regarding `COc1cc(-c2c(C#N)c(=O)n(-c3cccc(C(F)(F)F)c3)c3nc(C)[nH]c(=O)c23)cc(OC)c1OC` [Compound 7e], the melting point was in the range of 150 to 152 °C. Besides, the IC50 in the data set on MCF-7 cell line was found to be 27.8 ± 1.5 µM. In the data set on HepG2 cell line, this molecule yielded a concentration for half-maximal inhibition (IC50) of 71.9 ± 3.88 µM.

On to `CCC(=O)COc1nc(-c2cc(Cl)ccc2Cl)cc(-c2ccc(F)cc2)c1C#N` [III], for which the “IC50 cell growth inhibition, NCI-H460” value in data set [5] is 0.01 mg/L (≈ 0.0233 µM). For the same molecule, in the data set with SF-268 CNS cancer, the “IC50 cell growth inhibition, SF-268” value is 0.02 mg/L (≈ 0.0466 µM). For the same molecule, in the data set on MCF-7 breast cancer, the “IC50 cell growth inhibition, MCF-7” value was 0.02 mg/L (≈ 0.0466 µM).

Regarding `CC(=O)O[C@H]1C(=O)[C@@]2(C)[C@H]([C@H](OC(=O)c3ccccc3)[C@]3(O)C[C@H](OC(=O)[C@H](O)[C@@H](NC(=O)c4ccccc4)c4ccccc4)C(C)=C1C3(C)C)[C@]1(OC(C)=O)CO[C@@H]1C[C@@H]2O` [Taxol, paclitaxel, reference compound], in the data set with VEGFR-2 [2], the “VEGFR-2 (pg/mL) expression level” value amounted to 660.10 ± 31.4 pg/mL. For the same molecule, the half-maximal inhibitory concentration (IC50) in the data set on MCF-7 cell line was 8.48 ± 0.46 µM; in the data set on HepG2 cell line, 14.6 ± 0.79 µM. Also, in the data set on HER-2 [3], the “HER-2 (pg/mL) expression level” value amounted to 199.10 ± 8.6 pg/mL.

Regarding `COC(=O)NCC#Cc1ccc2ncnc(Nc3ccc(Oc4cccc(C)n4)c(C)c3)c2c1` [V], in the data set with HER-2 [6], the anti-HER-2 activity result is reported as “lower than 42 nM”.

In general, melting point refers to the temperature of the solid-liquid transition. As usually defined, the IC50 is the concentration at which inhibition is half-maximal. Higher therefore signals weaker potency.

Values taken from PMC9655118, “Identification of Novel Cyanopyridones and Pyrido[2,3-d]pyrimidines as Anticancer Agents with Dual VEGFR-2/HER-2 Inhibitory Action: Synthesis, Biological Evaluation and Molecular Docking Studies” (Pharmaceuticals, 2022).
